Publication PMC5943959, “Potent and Selective Carboxylic Acid Inhibitors of Tumor-Associated Carbonic Anhydrases IX and XII” (Molecules : A Journal of Synthetic Chemistry and Natural …, 2017)
Read-outs that look alike come from different tables or passages of the source.

How the values were obtained:
Assay type in all cases: biochemical
hCA IV = biological target: T1, hCA IV (Homo sapiens, UniProt P22748); assay: stopped-flow CO2 hydrase assay, hCA IV
T1 construct: made in house

hCA IX = biological target: T2, hCA IX (Homo sapiens, UniProt Q16790); assay: stopped-flow CO2 hydrase assay, hCA IX; settings: for Selectivity Index hCA II/hCA IX: ratio of Ki values; for Ki: recombinant enzyme, errors ± 5–10%, 3 assays
T2 construct: made in house

hCA II = biological target: T3, hCA II (Homo sapiens, UniProt P00918); assay: stopped-flow CO2 hydrase assay, hCA II
T3 construct: made in house

hCA VA = biological target: T4, hCA VA (Homo sapiens, UniProt P35218); assay: stopped-flow CO2 hydrase assay, hCA VA
T4 construct: made in house

hCA I = biological target: T5, hCA I (Homo sapiens, UniProt P00915); assay: stopped-flow CO2 hydrase assay, hCA I
T5 construct: made in house

hCA XII = biological target: T6, hCA XII (Homo sapiens, UniProt O43570); assay: stopped-flow CO2 hydrase assay, hCA XII; settings: for Selectivity Index hCA II/hCA XII: ratio of Ki values
T6 construct: made in house

hCA VII = biological target: T7, hCA VII (Homo sapiens, UniProt P43166); assay: stopped-flow CO2 hydrase assay, hCA VII
T7 construct: made in house

[1] = recombinant enzyme, errors ± 5–10%, 3 assays, read-out: Ki hCA IV
[2] = recombinant enzyme, errors ± 5–10%, 3 assays, read-out: Ki hCA II
[3] = recombinant enzyme, errors ± 5–10%, 3 assays, read-out: Ki hCA VA
[4] = recombinant enzyme, errors ± 5–10%, 3 assays, read-out: Ki hCA I
[5] = recombinant enzyme, errors ± 5–10%, 3 assays, read-out: Ki hCA XII
[6] = recombinant enzyme, errors ± 5–10%, 3 assays, read-out: Ki hCA VII

T7 sequence (P43166 whole entry): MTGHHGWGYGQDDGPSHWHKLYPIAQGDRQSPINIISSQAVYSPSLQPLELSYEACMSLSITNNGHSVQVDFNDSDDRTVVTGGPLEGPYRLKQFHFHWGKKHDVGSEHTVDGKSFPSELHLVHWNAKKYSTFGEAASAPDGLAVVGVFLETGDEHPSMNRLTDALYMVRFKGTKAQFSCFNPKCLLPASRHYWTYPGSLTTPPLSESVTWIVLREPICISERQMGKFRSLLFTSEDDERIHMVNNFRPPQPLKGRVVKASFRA
T4 sequence (P35218 39-305): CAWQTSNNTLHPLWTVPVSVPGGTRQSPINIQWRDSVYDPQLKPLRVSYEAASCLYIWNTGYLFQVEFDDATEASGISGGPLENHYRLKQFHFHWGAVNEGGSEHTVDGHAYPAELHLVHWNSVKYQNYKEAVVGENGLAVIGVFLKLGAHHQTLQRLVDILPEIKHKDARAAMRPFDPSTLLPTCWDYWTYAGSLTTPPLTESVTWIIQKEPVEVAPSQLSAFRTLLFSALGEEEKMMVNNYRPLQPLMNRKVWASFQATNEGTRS
T6 sequence (O43570 25-354): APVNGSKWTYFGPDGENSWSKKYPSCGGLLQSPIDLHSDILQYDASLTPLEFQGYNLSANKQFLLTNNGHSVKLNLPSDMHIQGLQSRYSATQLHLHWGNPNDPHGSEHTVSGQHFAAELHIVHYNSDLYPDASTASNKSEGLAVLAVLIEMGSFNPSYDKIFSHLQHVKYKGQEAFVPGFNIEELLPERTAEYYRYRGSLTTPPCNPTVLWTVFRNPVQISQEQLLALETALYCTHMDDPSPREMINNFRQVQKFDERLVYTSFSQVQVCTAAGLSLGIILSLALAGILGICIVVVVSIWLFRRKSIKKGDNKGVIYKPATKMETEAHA
T5 sequence (P00915 whole entry): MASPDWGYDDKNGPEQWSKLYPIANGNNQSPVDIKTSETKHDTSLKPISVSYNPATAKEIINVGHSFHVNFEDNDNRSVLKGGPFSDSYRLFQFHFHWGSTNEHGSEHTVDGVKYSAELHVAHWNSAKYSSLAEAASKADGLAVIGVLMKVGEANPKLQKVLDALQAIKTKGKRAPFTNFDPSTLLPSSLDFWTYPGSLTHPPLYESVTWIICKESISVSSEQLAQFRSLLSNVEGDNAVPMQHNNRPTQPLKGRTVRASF
T1 sequence (P22748 19-312): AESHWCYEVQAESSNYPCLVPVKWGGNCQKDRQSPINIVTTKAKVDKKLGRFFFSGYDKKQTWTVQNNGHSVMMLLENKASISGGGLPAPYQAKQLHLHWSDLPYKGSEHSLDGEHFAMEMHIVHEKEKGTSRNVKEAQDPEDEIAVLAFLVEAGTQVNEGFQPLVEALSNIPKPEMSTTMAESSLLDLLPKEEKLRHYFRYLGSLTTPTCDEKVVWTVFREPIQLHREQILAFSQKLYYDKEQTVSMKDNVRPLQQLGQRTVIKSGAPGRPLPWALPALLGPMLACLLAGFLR

Row | SMILES | Ki (hCA IV; [1]) | Selectivity Index hCA II/hCA IX (hCA IX) | Ki (hCA IX) | Ki (hCA II; [2]) | Ki against hCA II, fold higher than that of AAZ (hCA II; relative to AAZ) | Ki against hCA II, fold higher than that of GV2-20 (hCA II; relative to GV2-20) | Ki (hCA VA; [3]) | Ki (hCA I; [4]) | Selectivity Index hCA II/hCA XII (hCA XII) | Ki (hCA XII; [5]) | Ki (hCA VII; [6]) | drop of inhibitory potency against hCA VII compared to GV2-20 (hCA VII; relative to GV2-20) | Ki (hCA VA) | Ki (hCA I) | hCA VII inhibition (in words) (hCA VII) | hCA XII inhibition (in words) (hCA XII) | Ki (hCA IV) | Ki (hCA II) | Ki (hCA XII) | Ki (hCA VII)
1 | O=C(O)c1ccc(Sc2nnc(-c3cccc(Br)c3)o2)c([N+](=O)[O-])c1 [Compound 1] | 5.09 µM | 11.88 | 0.0551 µM | 0.655 µM | around 54 fold | around 10 fold | 0.826 µM | 0.7 µM | 23.99 | 0.0273 µM | 0.325 µM | around 37 fold | – | – | – | – | – | – | – | –
2 | CC1OC(Nc2cc(C(=O)O)cc([N+](=O)[O-])c2)C(O)C(O)C1O (centres unmarked) [Compound 2] | > 50 µM | 68.3 | 0.106 µM | 7.24 µM | – | – | – | – | – | > 50 µM | > 50 µM | – | 1.35 µM | 5.65 µM | – | – | – | – | – | –
3 | O=C(O)c1ccc(N2CCc3ccccc32)c([N+](=O)[O-])c1 [Compound 3] | > 50 µM | 34.9 | 0.209 µM | 7.3 µM | – | – | 1.31 µM | > 50 µM | – | > 50 µM | 0.84 µM | – | – | – | – | – | – | – | – | –
4 | O=C(O)c1ccc(Sc2ccccc2C(=O)O)c([N+](=O)[O-])c1 [Compound 4] | > 50 µM | 15.3 | 0.172 µM | 2.63 µM | – | – | – | – | – | > 50 µM | > 50 µM | – | > 50 µM | 6.02 µM | – | – | – | – | – | –
5 | O=C(O)c1ccc(NCCc2ccc(Cl)cc2)c([N+](=O)[O-])c1 [Compound 5] | > 50 µM | >326.8 | 0.153 µM | > 50 µM | – | – | 1.16 µM | – | >57.9 | 0.863 µM | > 50 µM | – | – | 8.15 µM | inactive | – | – | – | – | –
6 | CCOC(=O)C1CCN(c2ccc(C(=O)O)cc2[N+](=O)[O-])CC1 [Compound 6] | > 50 µM | 263.1 | 0.0306 µM | 8.05 µM | – | – | – | – | – | > 50 µM | > 50 µM | – | > 50 µM | 8.21 µM | – | not active | – | – | – | –
7 | CS(=O)(=O)c1ccc(C(=O)O)cc1[N+](=O)[O-] [Compound 7] | > 50 µM | 264.9 | 0.0276 µM | 7.31 µM | – | – | – | – | – | > 50 µM | > 50 µM | – | 1.46 µM | > 50 µM | – | not active | – | – | – | –
8 | O=C(O)c1ccc(Sc2nnc(Sc3ccc(C(=O)O)cc3[N+](=O)[O-])s2)c([N+](=O)[O-])c1 [Compound 8] | – | – | 0.0263 µM | – | – | – | – | – | – | – | – | – | > 50 µM | 6.45 µM | inactive | – | 8.8 µM | 0.801 µM | 0.912 µM | > 50 µM
9 | Cc1cc(C(=O)Nc2cc(C(=O)O)cc([N+](=O)[O-])c2)no1 [Compound 9] | 8.27 µM | 51.5 | 0.165 µM | 8.5 µM | – | – | – | – | 11.3 | 0.753 µM | 0.762 µM | – | > 50 µM | > 50 µM | – | – | – | – | – | –
10 | O=C(O)c1ccc(Sc2ccccn2)c([N+](=O)[O-])c1 [Compound 10] | > 50 µM | >3125 | 0.016 µM | > 50 µM | – | – | 0.142 µM | 6.65 µM | >609.01 | 0.0821 µM | 0.665 µM | – | – | – | – | – | – | – | – | –
11 | Cc1ccc(S(=O)(=O)c2ccc(C(=O)O)cc2[N+](=O)[O-])cc1 [Compound 11] | > 50 µM | >857.6 | 0.0583 µM | > 50 µM | – | – | 0.356 µM | – | >64.3 | 0.778 µM | > 50 µM | – | – | > 50 µM | – | – | – | – | – | –
12 | CC(=O)Nc1cccc(Nc2c([N+](=O)[O-])cc(C(=O)O)cc2[N+](=O)[O-])c1 [Compound 12] | > 50 µM | – | 0.082 µM | > 50 µM | – | – | 0.144 µM | – | – | 0.0919 µM | > 50 µM | – | – | > 50 µM | – | – | – | – | – | –
13 | O=C(O)c1ccc(NCc2cccnc2)c([N+](=O)[O-])c1 [Compound 13] | > 50 µM | >471.7 | 0.106 µM | > 50 µM | – | – | 0.117 µM | > 50 µM | >79.0 | 0.633 µM | > 50 µM | – | – | – | inactive | – | – | – | – | –
14 | O=C(CSc1nnc(-c2ccncc2)s1)Nc1cc(C(=O)O)cc([N+](=O)[O-])c1 [Compound 14] | > 50 µM | >2174.0 | 0.023 µM | > 50 µM | – | – | 0.449 µM | – | >103.7 | 0.482 µM | > 50 µM | – | – | > 50 µM | – | – | – | – | – | –
15 | CC(C)(C)OC(=O)N1CCC(Nc2ccc(C(=O)O)cc2[N+](=O)[O-])CC1 [Compound 15] | 9.2 µM | >2024.3 | 0.0247 µM | > 50 µM | – | – | 0.11 µM | – | >69.1 | 0.724 µM | > 50 µM | – | – | > 50 µM | – | – | – | – | – | –
16 | CC1=NN(c2ccc(C)cc2)C(=O)/C1=C/Nc1ccc(C(=O)O)cc1[N+](=O)[O-] [Compound 16] | 6.03 µM | >1661.1 | 0.0301 µM | > 50 µM | – | – | 0.154 µM | – | >142.0 | 0.352 µM | 1.73 µM | – | – | > 50 µM | – | – | – | – | – | –
17 | O=C(O)c1ccc(Sc2nnnn2-c2ccccc2)c([N+](=O)[O-])c1 [Compound 17] | 3.56 µM | >2136.8 | 0.0234 µM | > 50 µM | – | – | 0.739 µM | > 50 µM | >113.4 | 0.441 µM | > 50 µM | – | – | – | – | – | – | – | – | –
18 | O=C(Cc1ccccc1)Nc1ccc(C(=O)O)cc1 [Compound 18] | > 50 µM | 104.8 | 0.0728 µM | 7.63 µM | – | – | 0.262 µM | 2.73 µM | 12.1 | 0.629 µM | > 50 µM | – | – | – | – | – | – | – | – | –
19 | N#Cc1ccc(NCCc2ccccc2)c([N+](=O)[O-])c1 [Compound 19] | > 50 µM | >632.1 | 0.0791 µM | > 50 µM | – | – | 0.0925 µM | – | – | 0.648 µM | > 50 µM | – | – | > 50 µM | inactive | – | – | – | – | –
